For this assay, the target named is E3 ubiquitin-protein ligase CBL-B (Homo sapiens, UniProt Q13191). The assay can be described thus: Inhibition of biotin-tagged Cbl-B (unknown origin) pre-incubated with compound for 60 min followed by Lck addition and measured after 90 mins in presence of ATP by TR-FRET based assay. Background: In TR-FRET formats the signal depends on donor and acceptor labels being close together.

From ChEMBL document CHEMBL6153163, “Novel 6-Substituted-3-Phenylisoindolin-1-ones as Cbl-B Inhibitors for Treating Cancer” (ACS Med Chem Lett, 2025) come the findings set out here.

Sequence of E3 ubiquitin-protein ligase CBL-B (Q13191 whole entry): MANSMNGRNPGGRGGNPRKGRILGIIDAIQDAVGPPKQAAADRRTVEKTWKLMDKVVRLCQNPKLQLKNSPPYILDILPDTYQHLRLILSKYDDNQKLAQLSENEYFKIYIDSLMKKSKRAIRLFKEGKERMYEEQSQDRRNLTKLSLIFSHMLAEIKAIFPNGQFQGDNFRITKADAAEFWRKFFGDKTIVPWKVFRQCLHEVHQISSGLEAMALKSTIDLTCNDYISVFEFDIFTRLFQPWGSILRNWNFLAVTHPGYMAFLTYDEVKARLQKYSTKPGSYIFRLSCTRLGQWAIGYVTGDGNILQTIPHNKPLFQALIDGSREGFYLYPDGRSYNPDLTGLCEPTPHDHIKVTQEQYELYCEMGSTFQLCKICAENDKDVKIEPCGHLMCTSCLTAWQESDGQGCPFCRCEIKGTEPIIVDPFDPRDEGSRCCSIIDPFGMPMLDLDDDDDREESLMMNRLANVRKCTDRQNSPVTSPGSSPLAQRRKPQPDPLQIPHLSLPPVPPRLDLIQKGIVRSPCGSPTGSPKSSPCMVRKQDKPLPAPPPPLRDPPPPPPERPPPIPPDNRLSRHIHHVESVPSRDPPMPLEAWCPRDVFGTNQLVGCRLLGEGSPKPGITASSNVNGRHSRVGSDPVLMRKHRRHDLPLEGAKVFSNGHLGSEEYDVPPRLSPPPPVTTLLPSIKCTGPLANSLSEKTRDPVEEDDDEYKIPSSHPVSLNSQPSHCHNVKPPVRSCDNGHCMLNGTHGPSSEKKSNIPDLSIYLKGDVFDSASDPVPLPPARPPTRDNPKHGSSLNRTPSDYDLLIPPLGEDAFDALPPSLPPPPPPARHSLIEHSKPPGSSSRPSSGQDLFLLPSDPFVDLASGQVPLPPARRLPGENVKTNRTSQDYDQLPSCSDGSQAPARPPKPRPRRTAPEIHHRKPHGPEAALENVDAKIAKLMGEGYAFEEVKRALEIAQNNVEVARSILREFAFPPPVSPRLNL

In the case of `C[C@@H](NCc1cc2c(c(C(F)F)c1)CN(c1cccc([C@]3(c4nncn4C)C[C@H](Cl)C3)c1)C2=O)C1CCC1`, the IC50 (as a rule, the point on the concentration scale where inhibition reaches its midpoint) amounted to 4 nM.

Take `Cn1cnnc1[C@]1(c2cccc(N3Cc4c(Cl)cc(CNCC5CCC5)cc4C3=O)c2)C[C@@H](Cl)C1`: the IC50 was determined as 3.6 nM.

With `C[C@@H](NCc1cc2c(c(C(F)F)c1)CN(c1cccc([C@H](c3nncn3C)C3CC(F)C3)c1)C2=O)C1CCC1` (stereo partly specified), the IC50 was 4.2 nM.

In the case of `Cn1cnnc1[C@]1(c2cccc(N3Cc4c(Cl)cc(CNCC5CCC5)cc4C3=O)c2)C[C@H](Cl)C1`, the IC50 came out at 4.1 nM.

In the case of `CC(C)CNCc1cc(Cl)c2c(c1)C(=O)N(c1cccc([C@H](c3nncn3C)[C@H]3C[C@@H](F)C3)c1)C2`, the IC50 worked out at 4.3 nM.

In the case of `CC(C)CNCc1cc(Cl)c2c(c1)C(=O)N(c1cccc([C@H](c3nncn3C)[C@H]3C[C@@H](CC#N)C3)c1)C2`, the IC50 is 4.2 nM.
